Data published in patent publication US9732032B2, “3-aminocyclopentane carboxamide derivatives” (Merck Patent GmbH, priority 2012, dated 2017).

Biological target: T1, human recombinant full-length fatty acid synthase (FASN) (Homo sapiens, UniProt P49327)
T1 construct: human recombinant full-length fatty acid synthase; made in house; host or cells: SF9 cells
Assay: Biochemical activity testing of human fatty acid synthase FASN (NADPH fluorescence intensity assay)
Conditions: NADPH fluorescence decrease (ex 340 nm / em 460 nm), 30 minutes at room temperature, read-out: IC50 FASN (enzyme assay)
Source text: aq (aqueous), h (hour), g (gram), L (liter), mg (milligram), MHz (Megahertz), (melting point), eq (equivalent), mL (milliliter), L (microliter), ACN (acetonitrile), AcOH (acetic acid), CDCl3 (deuterated chloroform), CD3OD (deuterated methanol), CH3CN (acetonitrile), c-hex (cyclohexane), DCC (dicyclohexyl carbodiimide), DCM (dichloromethane), DIC (diisopropyl carbodiimide), DIEA (diisopropylethyl-amine), DMF (dimethylformamide), DMSO (dimethylsulfoxide), DMSO-d6 (deuterated dimethylsulfoxide), EDC (1-(3-dimethyl-amino-propyl)-3-ethylcarbodiimide), ESI (Electro-spray ionization), EtOAc (ethyl acetate), Et2O (diethyl ether), EtOH (ethanol), HATU (dimethylamino-([1,2,3]triazolo[4,5-b]pyridin-3-yloxy)-methylene]-dimethylammonium hexafluorophosphate), HPLC (High Performance Liquid Chromatography), i-PrOH (2-propanol), K2CO3 (potassium carbonate), LC (Liquid Chromatography), MeOH (methanol), MgSO4 (magnesium sulfate), MS (mass spectrometry), MTBE (Methyl tert-butyl ether), NaHCO3 (sodium bicarbonate), NaBH4 (sodium borohydride), NMM (N-methyl morpholine), NMR (Nuclear Magnetic Resonance), PyBOP (benzotriazole-1-yl-oxy-trispyrrolidino-phosphonium hexafluorophosphate), RT (room temperature), Rt (retention time), SPE (solid phase extraction), TBTU (2-(1-H-benzotriazole-1-yl)-1,1,3,3-tetramethyluromium tetrafluoro borate), TEA (triethylamine), TFA (trifluoroacetic acid), THF (tetrahydrofuran), TLC (Thin Layer Chromatography), UV (Ultraviolet). Description of the In Vitro Assays Abbreviations: GST=Glutathione-S-transferase FRET=Fluorescence resonance energy transfer HTRF®=(homogenous time resolved fluorescence) HEPES=4-(2-hydroxyethyl)-1-piperazine ethanesulfonic acid buffer DTT=Dithiothreitol BSA=bovine serum albumin CHAPS=detergent; CHAPS=3[(3-cholamidopropyl)dimethylammonio]-1-propanesulfonate Biochemical Activity Testing of Human Fatty Acid Synthase FASN
Fatty acid synthase FASN is a multifunctional enzyme with seven catalytic activities thereby synthesising long chain fatty acids especially palmitoyl-CoA in the presence of co-factor NADPH starting from the substrates acetyl-CoA and malonyl-CoA. The reductive synthesis is realized by the oxidation of NADPH to NADP. Since NADPH has a high fluorescence intensity quantum yield compared to NADP with excitation at 340 nm and emission at 460 nm, the reaction can be monitored via the decrease in fluorescence intensity. The biochemical FASN activity testing was performed as 384 well two-time-point kinetic fluorescence intensity assay format in Greiner low volume medium binding 384-well black microtiter plates in a total assay volume of 8 μl and was used for high throughput screen. In each well 3 μl 40 nM human recombinant full-length fatty acid synthase (produced in-house in SF9 cells) were dispensed in the following assay buffer: 50 mM potassium phosphate buffer pH 7.0, 0.005% (w/v) BSA, 2 mM Glutathione, 0.02% Tween-20. Then 2 μl of 200 μM NADPH in assay buffer were added, followed by the addition of the test compounds in 10 dilution concentrations starting with 30 μM (final concentration) to get a final DMSO content of 1% (v/v). The mixture was incubated for at least 15 min at room temperature. After the pre-incubation the enzymatic reaction was started by the addition of 2 μl substrate solution (80 μM acetyl-CoA, 240 μM malonyl-CoA). A first fluorescence intensity measurement (time point one) was performed with an Envision multimode reader (Perkin Elmer LAS Germany GmbH) at excitation wavelength 340 nm (lamp mode) and emission wavelength 460 nm. The reaction was incubated for 30 minutes at room temperature. After this the fluorescence intensity was measured again in the Envision using the same parameters as described above (second time point measurement). The data were analysed by subtracting the first time point measurement value from the second time point measurement value (after the enzymatic reaction). The differences of the emission signals were determined. […]

T1 sequence (P49327 whole entry): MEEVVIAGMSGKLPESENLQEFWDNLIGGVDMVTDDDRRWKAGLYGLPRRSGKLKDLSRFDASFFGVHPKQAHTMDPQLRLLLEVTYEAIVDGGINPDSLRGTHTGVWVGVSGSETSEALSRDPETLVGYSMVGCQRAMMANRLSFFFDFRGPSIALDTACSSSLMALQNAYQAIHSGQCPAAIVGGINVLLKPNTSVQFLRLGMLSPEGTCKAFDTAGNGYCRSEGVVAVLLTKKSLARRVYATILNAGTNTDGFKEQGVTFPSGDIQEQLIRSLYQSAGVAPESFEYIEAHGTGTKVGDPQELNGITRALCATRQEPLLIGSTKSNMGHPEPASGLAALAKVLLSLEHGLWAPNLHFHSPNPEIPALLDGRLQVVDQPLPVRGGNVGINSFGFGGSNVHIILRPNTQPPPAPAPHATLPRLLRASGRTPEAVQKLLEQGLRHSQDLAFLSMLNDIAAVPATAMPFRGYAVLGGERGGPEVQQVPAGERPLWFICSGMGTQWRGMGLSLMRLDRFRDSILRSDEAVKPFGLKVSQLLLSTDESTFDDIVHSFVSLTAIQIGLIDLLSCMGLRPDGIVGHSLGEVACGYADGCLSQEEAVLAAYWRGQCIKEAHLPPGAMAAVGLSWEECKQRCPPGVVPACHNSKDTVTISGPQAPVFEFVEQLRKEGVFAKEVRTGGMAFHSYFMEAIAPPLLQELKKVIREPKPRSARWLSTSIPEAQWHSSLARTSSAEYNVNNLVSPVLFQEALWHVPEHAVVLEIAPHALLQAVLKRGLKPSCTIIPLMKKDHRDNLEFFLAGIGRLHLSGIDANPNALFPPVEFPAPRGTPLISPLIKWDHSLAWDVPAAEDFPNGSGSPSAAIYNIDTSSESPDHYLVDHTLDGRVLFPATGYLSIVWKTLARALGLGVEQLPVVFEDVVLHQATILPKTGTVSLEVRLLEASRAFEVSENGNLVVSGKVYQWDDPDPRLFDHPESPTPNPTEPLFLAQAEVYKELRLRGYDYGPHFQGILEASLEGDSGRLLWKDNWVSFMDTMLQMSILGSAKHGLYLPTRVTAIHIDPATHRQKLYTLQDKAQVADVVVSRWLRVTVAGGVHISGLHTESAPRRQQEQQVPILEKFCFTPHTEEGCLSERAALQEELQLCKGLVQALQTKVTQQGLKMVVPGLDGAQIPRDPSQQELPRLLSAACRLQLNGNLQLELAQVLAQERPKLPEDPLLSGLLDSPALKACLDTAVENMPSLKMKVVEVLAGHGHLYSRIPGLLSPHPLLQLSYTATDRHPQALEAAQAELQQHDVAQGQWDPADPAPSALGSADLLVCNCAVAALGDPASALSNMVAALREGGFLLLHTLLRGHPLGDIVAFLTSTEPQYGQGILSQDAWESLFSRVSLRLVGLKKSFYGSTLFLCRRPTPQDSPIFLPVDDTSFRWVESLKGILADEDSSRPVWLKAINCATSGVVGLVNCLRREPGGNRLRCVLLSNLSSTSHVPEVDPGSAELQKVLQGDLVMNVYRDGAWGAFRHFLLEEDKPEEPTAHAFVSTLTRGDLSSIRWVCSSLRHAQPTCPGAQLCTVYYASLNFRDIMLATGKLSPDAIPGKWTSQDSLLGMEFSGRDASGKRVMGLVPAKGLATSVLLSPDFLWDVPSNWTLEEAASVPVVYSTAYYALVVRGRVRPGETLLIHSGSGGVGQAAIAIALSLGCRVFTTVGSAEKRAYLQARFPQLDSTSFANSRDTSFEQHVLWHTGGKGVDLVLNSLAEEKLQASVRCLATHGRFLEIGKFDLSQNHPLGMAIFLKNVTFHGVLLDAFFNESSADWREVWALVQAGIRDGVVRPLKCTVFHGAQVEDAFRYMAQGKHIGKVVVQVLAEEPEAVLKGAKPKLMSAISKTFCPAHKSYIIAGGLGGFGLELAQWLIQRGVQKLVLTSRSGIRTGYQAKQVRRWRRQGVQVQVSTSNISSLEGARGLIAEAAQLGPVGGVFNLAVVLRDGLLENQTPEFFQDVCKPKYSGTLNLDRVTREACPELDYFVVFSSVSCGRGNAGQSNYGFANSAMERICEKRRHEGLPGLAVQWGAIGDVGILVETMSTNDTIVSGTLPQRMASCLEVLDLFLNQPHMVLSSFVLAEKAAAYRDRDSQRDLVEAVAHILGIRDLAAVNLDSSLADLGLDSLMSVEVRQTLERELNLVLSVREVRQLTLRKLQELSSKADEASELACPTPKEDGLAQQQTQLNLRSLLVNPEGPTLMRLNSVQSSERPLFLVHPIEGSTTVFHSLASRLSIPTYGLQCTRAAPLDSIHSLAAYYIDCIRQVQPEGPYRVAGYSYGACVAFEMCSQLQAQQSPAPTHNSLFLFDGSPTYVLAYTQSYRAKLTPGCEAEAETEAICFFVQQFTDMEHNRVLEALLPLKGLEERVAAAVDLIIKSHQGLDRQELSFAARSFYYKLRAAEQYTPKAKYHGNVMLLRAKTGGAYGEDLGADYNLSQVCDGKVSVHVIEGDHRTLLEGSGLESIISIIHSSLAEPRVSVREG

SMILES: CCNC(=O)[C@H]1CC[C@@H](N(C)C(=O)c2ccc(-c3ccc(F)cc3F)cc2)C1 [Compound A63, 2′,4′-difluoro-biphenyl-4-carboxylic acid ((1R,3S)-3-ethylcarbamoyl-cyclopentyl)-methyl-amide]
- IC50: < 300 nM

SMILES: CCNC(=O)[C@H]1CC[C@@H](N(C)C(=O)c2ccc(-c3ccccc3C(F)(F)F)cc2)C1 [Compound A64, 2′-trifluoromethyl-biphenyl-4-carboxylic acid ((1R,3S)-3-ethylcarbamoyl-cyclopentyl)-methyl-amide]
- IC50: < 300 nM

SMILES: CCNC(=O)[C@H]1CC[C@@H](N(C)C(=O)c2ccc(-c3ccccc3C)c(C)c2)C1 [Compound A65, 2,2′-dimethyl-biphenyl-4-carboxylic acid ((1R,3S)-3-ethylcarbamoyl-cyclopentyl)-methyl-amide]
- IC50: < 300 nM

SMILES: CN(C(=O)c1ccc(-c2ccccc2)cc1)[C@@H]1CC[C@H](C(=O)NC2(C)CC2)C1 [Compound A67, biphenyl-4-carboxylic acid methyl-[(1R,3S)-3-(1-methyl-cyclopropylcarbamoyl)-cyclopentyl]-amide]
- IC50: < 300 nM

SMILES: CN(C(=O)c1ccc(-c2nc3ccccc3o2)cc1)[C@@H]1CC[C@H](C(=O)NC2(C)CC2)C1 [Compound A68, 4-benzoxazol-2-yl-N-methyl-N-[(1R,3S)-3-(1-methyl-cyclopropylcarbamoyl)-cyclopentyl]-benzamide]
- IC50: < 300 nM

SMILES: CCNC(=O)[C@H]1CC[C@@H](N(C)C(=O)c2ccc(C#Cc3ccc(OC)cc3)cc2)C1 [Compound A69, N-((1R,3S)-3-ethylcarbamoyl-cyclopentyl)-4-(4-methoxy-phenylethynyl)-N-methyl-benzamide]
- IC50: < 300 nM

SMILES: CCNC(=O)[C@H]1CC[C@@H](N(C)C(=O)c2ccc(C#Cc3ccncc3)cc2)C1 [Compound A70, N-((1R,3S)-3-ethylcarbamoyl-cyclopentyl)-N-methyl-4-pyridin-4-ylethynyl-benzamide]
- IC50: < 300 nM

SMILES: CN(C(=O)c1ccc(-c2nc3ccccc3s2)cc1)[C@@H]1CC[C@H](C(=O)NC2(C)CC2)C1 [Compound A71, 4-benzothiazol-2-yl-N-methyl-N-[(1R,3S)-3-(1-methyl-cyclopropylcarbamoyl)-cyclopentyl]-benzamide]
- IC50: < 300 nM

SMILES: CN(C(=O)c1ccc(C#Cc2ccc(F)cc2)cc1)[C@@H]1CC[C@H](C(=O)NC2(C)CC2)C1 [Compound A72, 4-(4-fluoro-phenylethynyl)-N-methyl-N-[(1R,3S)-3-(1-methyl-cyclopropylcarbamoyl)-cyclopentyl]-benzamide]
- IC50: < 300 nM

SMILES: CCCC1(NC(=O)[C@H]2CC[C@@H](N(C)C(=O)c3ccc(-c4nc5ccccc5o4)cc3)C2)CC1 [Compound A73, 4-benzoxazol-2-yl-N-methyl-N-[(1R,3S)-3-(1-propyl-cyclopropylcarbamoyl)-cyclopentyl]-benzamide]
- IC50: 300 to 3000 nM

SMILES: CC[C@H](C)NC(=O)[C@H]1CC[C@@H](N(C)C(=O)c2ccc(-c3nc4ccccc4o3)cc2)C1 [Compound A74, 4-(1,3-benzoxazol-2-yl)-N-methyl-N-[(1R,3S)-3-[[(1S)-1-methylpropyl]-carbamoyl]cyclopentyl]benzamide]
- IC50: < 300 nM

SMILES: CC[C@@H](C)NC(=O)[C@H]1CC[C@@H](N(C)C(=O)c2ccc(-c3nc4ccccc4o3)cc2)C1 [Compound A75, 4-(1,3-benzoxazol-2-yl)-N-methyl-N-[(1R,3S)-3-[[(1R)-1-methylpropyl]-carbamoyl]cyclopentyl]benzamide]
- IC50: < 300 nM

SMILES: CN(C(=O)c1ccc(-c2nc3ccccc3o2)cc1)[C@@H]1CC[C@H](C(=O)NC2CCC2)C1 [Compound A76, 4-(1,3-benzoxazol-2-yl)-N-[(1R,3S)-3-(cyclobutylcarbamoyl)cyclopentyl]-N-methyl-benzamide]
- IC50: < 300 nM

SMILES: CN(C(=O)c1ccc(-c2nc3ccccc3o2)cc1)[C@@H]1CC[C@H](C(=O)N[C@H]2C[C@H](O)C2)C1 [Compound A77, 4-(1,3-benzoxazol-2-yl)-N-[(1R,3S)-3-[(trans-3-hydroxycyclobutyl)-carbamoyl]cyclopentyl]-N-methyl-benzamide]
- IC50: < 300 nM

SMILES: CN(C(=O)c1ccc(-c2nc3ccccc3o2)cc1)[C@@H]1CC[C@H](C(=O)N[C@H]2C[C@@H](O)C2)C1 [Compound A78, 4-(1,3-benzoxazol-2-yl)-N-[(1R,3S)-3-[(cis-3-hydroxycyclobutyl)-carbamoyl]cyclopentyl]-N-methyl-benzamide]
- IC50: < 300 nM

SMILES: COc1cc(-c2nc3ccccc3o2)ccc1C(=O)N(C)[C@@H]1CC[C@H](C(=O)NC2(C)CC2)C1 [Compound A79, 4-(1,3-benzoxazol-2-yl)-2-methoxy-N-methyl-N-[(1R,3S)-3-[(1-methylcyclopropyl)carbamoyl]cyclopentyl]benzamide]
- IC50: 300 to 3000 nM

SMILES: CN(C(=O)c1ccc(-c2ccncc2)cc1)[C@@H]1CC[C@H](C(=O)NC2(C)CC2)C1 [Compound A80, N-methyl-N-[(1R,3S)-3-[(1-methylcyclopropyl)carbamoyl]cyclopentyl]-4-(4-pyridyl)benzamide]
- IC50: < 300 nM

SMILES: CN(C(=O)c1ccc(-c2ccc(C#N)cc2)cc1)[C@@H]1CC[C@H](C(=O)NC2(C)CC2)C1 [Compound A81, 4-(4-cyanophenyl)-N-methyl-N-[(1R,3S)-3-[(1-methylcyclopropyl)-carbamoyl]cyclopentyl]benzamide]
- IC50: < 300 nM

SMILES: CN(C)C(=O)[C@H]1CC[C@@H](N(C)C(=O)c2ccc(-c3nc4ccccc4o3)cc2)C1 [Compound A82, 4-benzoxazol-2-yl-N-((1R,3S)-3-dimethylcarbamoyl-cyclopentyl)-N-methyl-benzamide]
- IC50: 300 to 3000 nM

SMILES: CN(C(=O)c1ccc(-c2cccnc2)cc1)[C@@H]1CC[C@H](C(=O)NC2(C)CC2)C1 [Compound A83, N-methyl-N-[(1R,3S)-3-(1-methyl-cyclopropylcarbamoyl)-cyclopentyl]-4-pyridin-3-yl-benzamide]
- IC50: < 300 nM

SMILES: CN(C(=O)c1ccc(-c2nc3ccccc3o2)cc1)[C@@H]1CC[C@H](C(=O)NC2(C)CCC2)C1 [Compound A84, 4-benzoxazol-2-yl-N-methyl-N-[(1R,3S)-3-(1-methyl-cyclobutylcarbamoyl)-cyclopentyl]-benzamide]
- IC50: < 300 nM

SMILES: COc1cc(C(=O)N(C)[C@@H]2CC[C@H](C(=O)NC3(C)CC3)C2)ccc1-c1nc2ccccc2o1 [Compound A85, 4-benzoxazol-2-yl-3-methoxy-N-methyl-N-[(1R,3S)-3-(1-methyl-cyclopropylcarbamoyl)-cyclopentyl]-benzamide]
- IC50: < 300 nM

SMILES: CN(C(=O)c1ccc(-c2nc3ccccc3o2)cc1)[C@@H]1CC[C@H](C(N)=O)C1 [Compound A86, 4-benzoxazol-2-yl-N-((1R,3S)-3-carbamoyl-cyclopentyl)-N-methyl-benzamide]
- IC50: 300 to 3000 nM

SMILES: CCNC(=O)[C@H]1CC[C@@H](N(C)C(=O)c2ccc(-c3cn4ccc(C#N)cc4n3)cc2)C1 [Compound A87, 4-(7-cyano-imidazo[1,2-a]pyridin-2-yl)-N-((1R,3S)-3-ethylcarbamoyl-cyclopentyl)-N-methyl-benzamide]
- IC50: 300 to 3000 nM

SMILES: CCNC(=O)[C@H]1CC[C@@H](N(C)C(=O)c2ccc(-c3noc(C)n3)cc2)C1 [Compound A88, N-((1R,3S)-3-ethylcarbamoyl-cyclopentyl)-N-methyl-4-(5-methyl-[1,2,4]oxadiazol-3-yl)-benzamide]
- IC50: 3000 to 50000 nM

SMILES: C[C@@H](CO)NC(=O)[C@H]1CC[C@@H](N(C)C(=O)c2ccc(-c3nc4ccccc4o3)cc2)C1 [Compound A90, 4-benzoxazol-2-yl-N-[(1R,3S)-3-((S)-2-hydroxy-1-methyl-ethylcarbamoyl)-cyclopentyl]-N-methyl-benzamide]
- IC50: 300 to 3000 nM
